Among the data in PubChem BioAssay AID2060332 (Molecular Pharmacology Branch, DTP, NCI, 2025) are IC50 and viability, T/C values, retold here.

The assay has as its system LG0567-F671-PDC multi-cell spheroid viability. In words: Anticancer human tumor LG0567-F671-PDC patient-derived lung adenocarcinoma cell line growth inhibition [IpAb]. The note with it: for viability, T/C: stronger effect = lower value. The source says:
Combinatorial screen of targeted agents with ipatasertib and abemaciclib in multi-cell type tumor spheroids
A high-throughput screen of multi-cell type tumor spheroids was designed to identify active combinations of targeted small molecules and ipatasertib or abemaciclib. Complex spheroids include a stromal component modeled by human endothelial cells (HUVEC) and fibroblasts modeled by human mesenchymal stem cells (MSCs). The concentration ranges selected for each drug and investigational agent were based upon clinically achievable concentrations if the clinical Cmax of the agent was known.
Compounds. The drugs and investigational agents: ipatasertib (NSC767898), abemaciclib(NSC768073), selumetinib (NSC741078), trametinib (758246), adavosertib (NSC754352), everolimus (NSC733504), sapanisertib (NSC764658), vemurafenib (NSC761431), venetoclax (NSC766270), copanlisib (NSC809693), apelisib (NSC765974), palbociblib (NSC758247), vemurafenib (NSC761431), dabrafenib (NSC764134), ravoxertinib (NSC781343), BMS-387032 (NSC767048), sotorasib (NSC818433), talazoparib (NSC767125) and afursertib (NSC778305), were obtained from the National Cancer Institute (NCI) Developmental Therapeutics Program Chemical Repository. The FDA-approved anticancer drug set is available from the NCI Developmental Therapeutics Program. […] The stock solutions were prepared in dimethyl sulfoxide (DMSO, Sigma-Aldrich, St. Louis, MO, cat. D2650) at 800-fold the tested concentration and stored at -70 degrees C prior to their use. All drugs and investigational agents were tested over a range starting from a high concentration at or near the clinical Cmax and decreasing in half-log increments. If the clinical Cmax for an agent had not been determined, the highest concentration tested was 10 microM.
NCI60 Cell Culture. NCI60 cell lines were obtained from the NCI Developmental Therapeutics Program Tumor Repository. For each lot of cells, the Repository performed Applied Biosystems AmpFLSTR Identifiler testing with PCR amplification to confirm consistency with the published Identifier STR profile for each cell line. Cells were kept in continuous culture for no more than 20 passages. The optimal seeding densities for each of the cell lines at each time point assessed were determined prior to performing the concentration response studies. Briefly, the NCI60 human tumor lines were grown as monolayers in RPMI 1640 medium supplemented with 10% FBS and 2 mmol/L L-glutamine.
An additional 9 lines were from the NCI60 cell line panel including MDA-MB-231 breast carcinoma, MDA-MB-468 breast carcinoma, MCF7 breast carcinoma, Hs578T breast carcinoma, MALME-3M melanoma, SK-MEL-2 melanoma, SK-OV-3 ovarian carcinoma, DU-145 prostate carcinoma, PC-3 prostate carcinoma, all cell lines along with major genetic alterations are listed on Table 2. Pooled donor human umbilical vein endothelial cells (HUVEC, Lonza, cat. CC-2519) and human mesenchymal stem cells (hMSC, Lonza, cat. PT-2501) were purchased from Lonza (Walkersville, MD).
PDMR cell lines were grown in complete medium (DC medium): Dulbecco's modified Eagle's medium (DMEM)/F12 supplemented with 5% fetal bovine serum (FBS), 2 mM L-glutamine, 100 U/mL penicillin and 100 µg/ml streptomycin, 0.4 µg/ml hydrocortisone, 10 ng/ml epidermal growth factor (EGF) recombinant human protein, 24 µg/mL adenine, and 0.1 mg/mL primocin. During culture from frozen stock vials, PDMR cells were cultured in the same medium containing 10 µM Y-27632 (see Table 3). The PDCs were cultured in complete DMEM/F12 media without 10 microM Y-27632 dihydrochloride for at least two passages prior to the screen. The pooled donor HUVEC and hMSC were cultured in endothelial cell growth medium 2 (PromoCell, Heidelberg, Germany, cat. C-22011) and mesenchymal stem cell growth medium 2 (PromoCell, cat. C-28009), respectively. For all experiments, HUVEC and hMSC were used at passages </=5.
[…]

Where [1] appears, read: curve of first compound, second compound 0.1 µM.
[2] abbreviates: curve of first compound, second compound 0.316 µM.
[3] abbreviates: curve of first compound, second compound 1 µM.
Where [4] appears, read: second compound 0.1 µM, first compound 0.0316 µM.
Setting [5] is: second compound 0.1 µM, first compound 0.1 µM.
Where [6] appears, read: second compound 0.1 µM, first compound 0.316 µM.
Where [7] appears, read: second compound 0.1 µM, first compound 1 µM.
Where [8] appears, read: second compound 0.1 µM, first compound 3.16 µM.
Setting [9] is: second compound 0.1 µM, first compound 10 µM.
[10] abbreviates: second compound 0.316 µM, first compound 0.0316 µM.
Setting [11] is: second compound 0.316 µM, first compound 0.1 µM.
Setting [12] is: second compound 0.316 µM, first compound 0.316 µM.
Where [13] appears, read: second compound 0.316 µM, first compound 1 µM.
[14] abbreviates: second compound 0.316 µM, first compound 3.16 µM.
[15] abbreviates: second compound 0.316 µM, first compound 10 µM.
Setting [16] is: second compound 1 µM, first compound 0.0316 µM.
Setting [17] is: second compound 1 µM, first compound 0.1 µM.
[18] abbreviates: second compound 1 µM, first compound 0.316 µM.
Setting [19] is: second compound 1 µM, first compound 1 µM.
Setting [20] is: second compound 1 µM, first compound 3.16 µM.
[21] abbreviates: second compound 1 µM, first compound 10 µM.

SMILES strings stand for the structures. Where “and” joins values, the source holds several entries; their conditions need not be identical. Equal entries are not always repeated. Some results are limits rather than exact numbers.
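Further: viability read after 7 days of drug exposure.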
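Wherever viability, T/C is given: 100% = DMSO vehicle control luminescence.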

Consider `C=CC(=O)N1CCN(c2nc(=O)n(-c3c(C)ccnc3C(C)C)c3nc(-c4c(O)cccc4F)c(F)cc23)C(C)C1` (centres undefined) + CC(C)NCC(C(=O)N1CCN(c2ncnc3c2C(C)CC3O)CC1)c1ccc(Cl)cc1, for which the concentration for half-maximal inhibition (IC50) (commonly the concentration needed to halve the response being measured) was < 31.6 nM under setting [1]; < 31.6 nM under setting [2]; < 31.6 nM under setting [3]; < 31.6 nM (curve of first compound, second compound 3.16 µM); < 31.6 nM (curve of first compound, second compound 10 µM). Further, the viability, T/C (commonly the ratio of treated to control) by setting is: under setting [4], 20%; under setting [5], 15.1%; under setting [6], 15.1%; under setting [7], 14.7%; under setting [8], 15.9%; under setting [9], 16.6%. The viability, T/C was 12.9% under setting [10]; 16.1% under setting [11]; 15.5% under setting [12]; 14.8% under setting [13]; 8.74% under setting [14]; 9.44% under setting [15]. Further, the viability, T/C is, setting by setting: under setting [16], 13.8%; under setting [17], 13.9%; under setting [18], 13.1%; under setting [19], 10.5%; under setting [20], 10.2%; under setting [21], 8.39%. For the same molecule, the viability, T/C runs as follows: (second compound 3.16 µM, first compound 0.0316 µM) 14.9%; (second compound 3.16 µM, first compound 0.1 µM) 15.8%; (second compound 3.16 µM, first compound 0.316 µM) 11.4%; (second compound 3.16 µM, first compound 1 µM) 10.6%; (second compound 3.16 µM, first compound 3.16 µM) 10.4%; (second compound 3.16 µM, first compound 10 µM) 10.6%. The viability, T/C runs as follows: (second compound 10 µM, first compound 0.0316 µM) 13.5%; (second compound 10 µM, first compound 0.1 µM) 11%; (second compound 10 µM, first compound 0.316 µM) 10.1%; (second compound 10 µM, first compound 1 µM) 10%; (second compound 10 µM, first compound 3.16 µM) 12.5%; (second compound 10 µM, first compound 10 µM) 9.01%.
As for `CC(=O)c1c(C)c2cnc(Nc3ccc(N4CCNCC4)cn3)nc2n(C2CCCC2)c1=O`, the viability, T/C was 95.7% and 102% (compound 0.000949 µM); 78.4% and 87.8% (compound 0.003 µM); 107% and 91.7% (compound 0.00949 µM); 68.7% and 76.1% (compound 0.03 µM); 91.7% and 72.5% (compound 0.0949 µM); 86.8% and 82.4% (compound 0.3 µM). The half-inhibitory concentration (IC50) (curve of compound) is > 300 nM.
Turning to `Cn1ncnc1[C@H]1c2n[nH]c(=O)c3cc(F)cc(c23)N[C@@H]1c1ccc(F)cc1`, the viability, T/C (compound 0.000316 µM) was 113% and 103%; the viability, T/C (compound 0.001 µM) is 89.9% and 84.2%; the viability, T/C (compound 0.00316 µM) was 96.3% and 81.5%; the viability, T/C (compound 0.01 µM) is 69.8% and 66%; the viability, T/C (compound 0.0316 µM) is 42.7% and 73.8%; the viability, T/C (compound 0.1 µM) is 65.2% and 30.4%. Also, for the setting “curve of compound”, the IC50 is > 100 nM and 49.1 nM.
For `C=CCn1c(=O)c2cnc(Nc3ccc(N4CCN(C)CC4)cc3)nc2n1-c1cccc(C(C)(C)O)n1` + CCN1CCN(Cc2ccc(Nc3ncc(F)c(-c4cc(F)c5nc(C)n(C(C)C)c5c4)n3)nc2)CC1, the IC50 reads like this: (curve of first compound, second compound 0.01 µM) 800 nM; (curve of first compound, second compound 0.0316 µM) 310 nM; under setting [1], 518 nM; under setting [2], 240 nM; under setting [3], 359 nM. The viability, T/C (second compound 0.01 µM, first compound 0.0316 µM) is 95%; the viability, T/C (second compound 0.01 µM, first compound 0.1 µM) was 68.1%; the viability, T/C (second compound 0.01 µM, first compound 0.316 µM) is 66.8%; the viability, T/C (second compound 0.01 µM, first compound 1 µM) was 48.4%; the viability, T/C (second compound 0.01 µM, first compound 3.16 µM) was 31.9%; the viability, T/C (second compound 0.01 µM, first compound 10 µM) is 32%. In addition, the viability, T/C reads like this: (second compound 0.0316 µM, first compound 0.0316 µM) 94.2%; (second compound 0.0316 µM, first compound 0.1 µM) 52.9%; (second compound 0.0316 µM, first compound 0.316 µM) 54.9%; (second compound 0.0316 µM, first compound 1 µM) 48.5%; (second compound 0.0316 µM, first compound 3.16 µM) 36.4%; (second compound 0.0316 µM, first compound 10 µM) 23.8%. The viability, T/C reads like this: under setting [4], 64.2%; under setting [5], 50.4%; under setting [6], 51.2%; under setting [7], 51.1%; under setting [8], 35%; under setting [9], 23.8%. For the same molecule, the viability, T/C is 57.8% under setting [10]; 52.9% under setting [11]; 46.9% under setting [12]; 45.6% under setting [13]; 35.8% under setting [14]; 27.9% under setting [15]. For the same molecule, the viability, T/C by setting is: under setting [16], 63.8%; under setting [17], 59.8%; under setting [18], 49.2%; under setting [19], 43.9%; under setting [20], 33.9%; under setting [21], 29.4%.
